Measurements: ChEMBL document CHEMBL5113421, “Development of novel conformationally restricted selective Clk1/4 inhibitors through creating an intramolecular hydrogen bond involving an imide linker” (Eur J Med Chem, 2022)

Experiments:
[1] = molecular target: T1, Dual specificity protein kinase CLK1 (Homo sapiens, UniProt P49759); assay: Inhibition of human recombinant GST-tagged Clk1 (129 to 484 residues) expressed in Escherichia coli expression system at 100 nM using GRSRSRSRSRSRSRS peptide as substrate incubated for 15 mins in presence of ATP by phosphoimager analysis relative to control
Target sequence in this assay (P49759 whole entry, looked up, the tested form may be a part): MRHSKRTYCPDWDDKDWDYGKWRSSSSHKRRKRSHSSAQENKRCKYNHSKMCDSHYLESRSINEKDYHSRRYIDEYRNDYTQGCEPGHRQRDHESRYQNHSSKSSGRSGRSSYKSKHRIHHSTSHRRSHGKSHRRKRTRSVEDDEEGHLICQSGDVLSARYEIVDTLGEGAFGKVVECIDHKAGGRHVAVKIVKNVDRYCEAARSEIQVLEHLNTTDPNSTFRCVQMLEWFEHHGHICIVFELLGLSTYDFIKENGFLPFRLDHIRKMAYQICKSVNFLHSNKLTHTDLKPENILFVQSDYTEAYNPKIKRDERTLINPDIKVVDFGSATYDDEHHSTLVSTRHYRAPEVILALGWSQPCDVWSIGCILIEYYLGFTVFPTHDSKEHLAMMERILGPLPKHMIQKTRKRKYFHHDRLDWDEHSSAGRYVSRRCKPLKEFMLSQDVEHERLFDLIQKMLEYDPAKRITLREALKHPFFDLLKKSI

[2] = molecular target: T1, Dual specificity protein kinase CLK1; assay: Inhibition of human recombinant GST-tagged Clk1 (129 to 484 residues) expressed in Escherichia coli expression system using GRSRSRSRSRSRSRS peptide as substrate incubated for 15 mins in presence of ATP by phosphoimager analysis
Target sequence in this assay (P49759 whole entry, the tested form may be a part): as the sequence (P49759 whole entry, looked up, the tested form may be a part) above

T-24 = assay: Antiproliferative activity against human T24 cells assessed as cell growth inhibition measured after 3 days by MTT assay; format: functional; conditions: T-24, 72 h, time 3 day
[3] = molecular target: T2, Dual specificity protein kinase CLK2 (Homo sapiens, UniProt P49760); assay: Inhibition of human recombinant GST-tagged Clk2 expressed in Baculovirus expression system using GRSRSRSRSRSRSRS peptide as substrate incubated for 15 mins in presence of ATP by phosphoimager analysis
Target sequence in this assay (P49760 whole entry): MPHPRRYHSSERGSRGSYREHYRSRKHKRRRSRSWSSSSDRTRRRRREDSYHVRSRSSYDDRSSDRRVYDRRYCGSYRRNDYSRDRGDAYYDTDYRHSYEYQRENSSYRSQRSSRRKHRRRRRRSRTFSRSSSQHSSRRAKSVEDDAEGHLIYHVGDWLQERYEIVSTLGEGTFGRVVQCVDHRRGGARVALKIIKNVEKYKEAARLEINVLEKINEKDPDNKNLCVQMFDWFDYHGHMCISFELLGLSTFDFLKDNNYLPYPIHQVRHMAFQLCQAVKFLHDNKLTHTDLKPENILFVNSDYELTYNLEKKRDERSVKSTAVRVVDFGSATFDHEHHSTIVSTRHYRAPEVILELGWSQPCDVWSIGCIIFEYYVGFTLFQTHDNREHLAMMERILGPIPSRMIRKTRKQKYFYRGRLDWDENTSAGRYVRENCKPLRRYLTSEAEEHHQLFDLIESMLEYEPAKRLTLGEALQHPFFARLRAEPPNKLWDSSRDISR

[4] = molecular target: T2, Dual specificity protein kinase CLK2; assay: Inhibition of human recombinant GST-tagged Clk2 expressed in Baculovirus expression system at 0.25 uM using GRSRSRSRSRSRSRS peptide as substrate incubated for 15 mins in presence of ATP by phosphoimager analysis relative to control
Target sequence in this assay (P49760 whole entry, looked up): as the sequence (P49760 whole entry) above

Homo sapiens [5] = species on record: Homo sapiens; assay: Selectivity index, ratio of IC50 for human Clk2 to IC50 for human Clk1 by phosphoimager analysis
[6] = molecular target: Casein kinase I isoform delta (Homo sapiens) (UniProt P48730); assay: Inhibition of human recombinant GST tagged full length CSNK1D expressed in Baculovirus expression system at 1 uM relative to control
Homo sapiens [7] = species on record: Homo sapiens; assay: Inhibition of CK2 (unknown origin) at 1 uM relative to control
[8] = molecular target: Dual specificity protein kinase CLK3 (Homo sapiens) (UniProt P49761); assay: Inhibition of human recombinant GST-tagged full length CLK3 expressed in Baculovirus expression system at 1 uM relative to control
[9] = molecular target: T3, Dual specificity protein kinase CLK4 (Homo sapiens, UniProt Q9HAZ1); assay: Inhibition of human recombinant GST tagged full length CLK4 expressed in Baculovirus expression system at 1 uM relative to control
[10] = molecular target: Dual specificity tyrosine-phosphorylation-regulated kinase 1A (Homo sapiens) (UniProt Q13627); assay: Inhibition of human recombinant GST tagged full length DYRK1A expressed in Baculovirus expression system at 1 uM relative to control
[11] = molecular target: T4, Serine/threonine-protein kinase haspin (Homo sapiens) (UniProt Q8TF76); assay: Inhibition of human recombinant GST tagged full length Haspin catalytic domain expressed in Baculovirus expression system at 1 uM relative to control
T4 sequence (whole entry): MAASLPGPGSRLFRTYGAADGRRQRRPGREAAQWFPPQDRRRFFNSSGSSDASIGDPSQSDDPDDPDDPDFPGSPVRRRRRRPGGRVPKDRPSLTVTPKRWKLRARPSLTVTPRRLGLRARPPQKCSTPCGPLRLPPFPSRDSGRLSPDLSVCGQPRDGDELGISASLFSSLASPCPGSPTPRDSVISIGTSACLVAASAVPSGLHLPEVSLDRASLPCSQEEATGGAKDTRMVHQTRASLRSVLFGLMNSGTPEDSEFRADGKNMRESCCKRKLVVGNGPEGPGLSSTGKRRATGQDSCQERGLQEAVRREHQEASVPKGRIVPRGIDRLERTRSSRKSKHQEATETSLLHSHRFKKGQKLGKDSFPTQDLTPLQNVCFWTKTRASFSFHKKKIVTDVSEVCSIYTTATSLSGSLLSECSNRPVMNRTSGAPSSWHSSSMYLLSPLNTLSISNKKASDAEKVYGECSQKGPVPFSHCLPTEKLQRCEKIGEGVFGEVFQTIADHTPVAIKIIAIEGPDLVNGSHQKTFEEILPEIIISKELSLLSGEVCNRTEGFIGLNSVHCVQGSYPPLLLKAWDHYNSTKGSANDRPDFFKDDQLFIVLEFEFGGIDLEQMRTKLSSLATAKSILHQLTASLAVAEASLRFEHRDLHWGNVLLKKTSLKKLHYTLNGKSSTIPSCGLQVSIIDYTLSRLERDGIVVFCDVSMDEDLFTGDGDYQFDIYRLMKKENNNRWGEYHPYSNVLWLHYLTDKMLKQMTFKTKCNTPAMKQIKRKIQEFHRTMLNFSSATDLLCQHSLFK

[12] = molecular target: Homeodomain-interacting protein kinase 1 (Homo sapiens) (UniProt Q86Z02); assay: Inhibition of human recombinant GST tagged HIPK1 expressed in Baculovirus expression system at 1 uM relative to control
[13] = molecular target: Serine/threonine-protein kinase pim-1 (Homo sapiens) (UniProt P11309); assay: Inhibition of human recombinant His tagged full length Pim1 expressed in Baculovirus expression system at 1 uM relative to control
[14] = molecular target: SRSF protein kinase 1 (Homo sapiens) (UniProt Q96SB4); assay: Inhibition of human recombinant His tagged full length SRPK1 expressed in Baculovirus expression system at 1 uM relative to control
[15] = molecular target: BDNF/NT-3 growth factors receptor (Homo sapiens) (UniProt Q16620); assay: Inhibition of human recombinant His tagged full length TRKB expressed in Baculovirus expression system at 1 uM relative to control
[16] = molecular target: Cyclin-dependent kinase 5/CDK5 activator 1 (Homo sapiens) (UniProt Q00535+Q15078); assay: Inhibition of human recombinant GST tagged/His-tagged full length CDK5/p25 expressed in Baculovirus expression system at 1 uM relative to control
[17] = molecular target: T5, Dual specificity tyrosine-phosphorylation-regulated kinase 2 (Homo sapiens) (UniProt Q92630); assay: Inhibition of human recombinant GST tagged full length DYRK2 expressed in Escherichia coli expression system at 1 uM relative to control
T5 sequence (whole entry): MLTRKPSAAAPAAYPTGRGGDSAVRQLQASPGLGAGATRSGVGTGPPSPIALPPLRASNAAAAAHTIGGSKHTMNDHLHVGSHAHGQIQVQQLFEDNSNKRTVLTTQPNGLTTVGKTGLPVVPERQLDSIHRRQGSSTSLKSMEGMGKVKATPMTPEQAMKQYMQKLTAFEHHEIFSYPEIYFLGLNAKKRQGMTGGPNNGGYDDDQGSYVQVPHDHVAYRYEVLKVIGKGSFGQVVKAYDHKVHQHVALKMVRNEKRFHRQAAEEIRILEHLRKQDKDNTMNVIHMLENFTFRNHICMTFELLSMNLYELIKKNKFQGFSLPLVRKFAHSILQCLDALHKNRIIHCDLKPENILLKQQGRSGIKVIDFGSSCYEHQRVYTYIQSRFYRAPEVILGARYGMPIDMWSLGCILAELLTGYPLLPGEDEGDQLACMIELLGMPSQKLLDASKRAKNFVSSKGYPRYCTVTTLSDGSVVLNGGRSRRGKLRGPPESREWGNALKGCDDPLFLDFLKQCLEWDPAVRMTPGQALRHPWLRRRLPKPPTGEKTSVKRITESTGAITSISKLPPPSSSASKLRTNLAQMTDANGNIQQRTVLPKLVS

[18] = molecular target: T3, Dual specificity protein kinase CLK4; assay: Inhibition of human recombinant GST tagged full length CLK4 expressed in Baculovirus expression system at 1 uM
Homo sapiens [19] = species on record: Homo sapiens; assay: Selectivity ratio of IC50 for human Clk2 to IC50 for human Clk1 by ADP-Glo assay
Homo sapiens [20] = species on record: Homo sapiens; assay: Selectivity ratio of IC50 for human Clk2 to IC50 for human Clk1
Homo sapiens [21] = species on record: Homo sapiens; assay: Selectivity ratio of IC50 for human DYRK1A to IC50 for human Clk1

Sequence of Serine/threonine-protein kinase pim-1 (Homo sapiens) (P11309 whole entry, looked up): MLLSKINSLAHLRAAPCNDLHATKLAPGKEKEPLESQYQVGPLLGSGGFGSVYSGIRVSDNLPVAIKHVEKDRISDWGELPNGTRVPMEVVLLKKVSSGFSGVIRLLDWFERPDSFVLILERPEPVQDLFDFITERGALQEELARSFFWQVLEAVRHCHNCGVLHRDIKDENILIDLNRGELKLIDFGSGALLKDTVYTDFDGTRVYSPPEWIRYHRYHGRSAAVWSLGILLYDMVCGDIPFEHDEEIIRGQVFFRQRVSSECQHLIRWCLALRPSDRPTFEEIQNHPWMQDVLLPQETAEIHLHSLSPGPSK
Sequence of Dual specificity protein kinase CLK3 (Homo sapiens) (P49761 whole entry, looked up): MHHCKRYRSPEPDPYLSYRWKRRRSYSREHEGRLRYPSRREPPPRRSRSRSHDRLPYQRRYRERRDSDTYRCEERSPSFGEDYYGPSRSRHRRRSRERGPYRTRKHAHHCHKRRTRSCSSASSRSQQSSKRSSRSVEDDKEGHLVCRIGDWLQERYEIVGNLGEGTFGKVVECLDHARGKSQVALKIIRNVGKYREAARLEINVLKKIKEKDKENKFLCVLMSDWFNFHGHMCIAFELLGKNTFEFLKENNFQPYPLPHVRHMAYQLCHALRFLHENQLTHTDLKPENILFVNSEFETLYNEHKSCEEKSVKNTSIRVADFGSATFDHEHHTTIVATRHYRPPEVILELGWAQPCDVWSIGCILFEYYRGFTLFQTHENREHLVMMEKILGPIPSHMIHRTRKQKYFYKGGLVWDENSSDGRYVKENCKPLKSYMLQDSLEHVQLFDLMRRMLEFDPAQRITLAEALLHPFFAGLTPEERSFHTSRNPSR
Sequence of BDNF/NT-3 growth factors receptor (Homo sapiens) (Q16620 32-822 limits assumed): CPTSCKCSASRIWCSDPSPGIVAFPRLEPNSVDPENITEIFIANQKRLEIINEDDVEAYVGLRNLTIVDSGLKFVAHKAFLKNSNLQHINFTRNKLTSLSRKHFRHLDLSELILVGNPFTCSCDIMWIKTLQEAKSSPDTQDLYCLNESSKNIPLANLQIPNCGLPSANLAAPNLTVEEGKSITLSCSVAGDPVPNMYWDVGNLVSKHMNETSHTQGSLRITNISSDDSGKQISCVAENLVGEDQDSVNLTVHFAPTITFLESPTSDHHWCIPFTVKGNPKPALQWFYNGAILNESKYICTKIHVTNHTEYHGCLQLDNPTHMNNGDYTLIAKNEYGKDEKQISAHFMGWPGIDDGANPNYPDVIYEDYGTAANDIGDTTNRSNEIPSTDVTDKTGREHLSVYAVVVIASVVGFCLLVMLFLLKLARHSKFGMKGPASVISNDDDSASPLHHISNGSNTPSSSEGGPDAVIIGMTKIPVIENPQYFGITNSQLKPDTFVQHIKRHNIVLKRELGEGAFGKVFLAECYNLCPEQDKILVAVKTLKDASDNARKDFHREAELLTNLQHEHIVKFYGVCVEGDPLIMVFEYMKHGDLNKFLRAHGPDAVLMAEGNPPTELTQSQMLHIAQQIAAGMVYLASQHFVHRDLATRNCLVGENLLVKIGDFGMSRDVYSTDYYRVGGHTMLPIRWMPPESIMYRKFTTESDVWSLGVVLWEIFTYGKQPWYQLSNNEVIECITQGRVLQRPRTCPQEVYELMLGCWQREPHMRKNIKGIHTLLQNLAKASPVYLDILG
Sequence of SRSF protein kinase 1 (Homo sapiens) (Q96SB4 whole entry): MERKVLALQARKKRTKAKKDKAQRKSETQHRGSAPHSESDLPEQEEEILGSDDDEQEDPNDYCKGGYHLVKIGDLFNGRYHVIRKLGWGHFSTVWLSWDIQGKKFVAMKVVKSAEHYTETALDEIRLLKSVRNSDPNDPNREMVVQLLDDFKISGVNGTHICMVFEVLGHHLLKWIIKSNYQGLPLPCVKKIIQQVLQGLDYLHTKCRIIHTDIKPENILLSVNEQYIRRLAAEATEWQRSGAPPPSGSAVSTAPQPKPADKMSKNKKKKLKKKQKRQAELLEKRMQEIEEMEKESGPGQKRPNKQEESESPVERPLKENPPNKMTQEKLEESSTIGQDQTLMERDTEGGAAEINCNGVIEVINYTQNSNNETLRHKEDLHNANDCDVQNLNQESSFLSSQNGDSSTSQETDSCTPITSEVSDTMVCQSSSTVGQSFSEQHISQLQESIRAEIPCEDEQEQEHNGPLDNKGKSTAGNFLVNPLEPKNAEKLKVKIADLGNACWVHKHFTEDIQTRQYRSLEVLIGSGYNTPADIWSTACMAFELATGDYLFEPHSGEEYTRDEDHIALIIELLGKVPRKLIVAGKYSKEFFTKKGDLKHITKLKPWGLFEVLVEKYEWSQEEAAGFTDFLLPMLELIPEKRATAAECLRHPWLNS
Sequence of Homeodomain-interacting protein kinase 1 (Homo sapiens) (Q86Z02 whole entry, looked up): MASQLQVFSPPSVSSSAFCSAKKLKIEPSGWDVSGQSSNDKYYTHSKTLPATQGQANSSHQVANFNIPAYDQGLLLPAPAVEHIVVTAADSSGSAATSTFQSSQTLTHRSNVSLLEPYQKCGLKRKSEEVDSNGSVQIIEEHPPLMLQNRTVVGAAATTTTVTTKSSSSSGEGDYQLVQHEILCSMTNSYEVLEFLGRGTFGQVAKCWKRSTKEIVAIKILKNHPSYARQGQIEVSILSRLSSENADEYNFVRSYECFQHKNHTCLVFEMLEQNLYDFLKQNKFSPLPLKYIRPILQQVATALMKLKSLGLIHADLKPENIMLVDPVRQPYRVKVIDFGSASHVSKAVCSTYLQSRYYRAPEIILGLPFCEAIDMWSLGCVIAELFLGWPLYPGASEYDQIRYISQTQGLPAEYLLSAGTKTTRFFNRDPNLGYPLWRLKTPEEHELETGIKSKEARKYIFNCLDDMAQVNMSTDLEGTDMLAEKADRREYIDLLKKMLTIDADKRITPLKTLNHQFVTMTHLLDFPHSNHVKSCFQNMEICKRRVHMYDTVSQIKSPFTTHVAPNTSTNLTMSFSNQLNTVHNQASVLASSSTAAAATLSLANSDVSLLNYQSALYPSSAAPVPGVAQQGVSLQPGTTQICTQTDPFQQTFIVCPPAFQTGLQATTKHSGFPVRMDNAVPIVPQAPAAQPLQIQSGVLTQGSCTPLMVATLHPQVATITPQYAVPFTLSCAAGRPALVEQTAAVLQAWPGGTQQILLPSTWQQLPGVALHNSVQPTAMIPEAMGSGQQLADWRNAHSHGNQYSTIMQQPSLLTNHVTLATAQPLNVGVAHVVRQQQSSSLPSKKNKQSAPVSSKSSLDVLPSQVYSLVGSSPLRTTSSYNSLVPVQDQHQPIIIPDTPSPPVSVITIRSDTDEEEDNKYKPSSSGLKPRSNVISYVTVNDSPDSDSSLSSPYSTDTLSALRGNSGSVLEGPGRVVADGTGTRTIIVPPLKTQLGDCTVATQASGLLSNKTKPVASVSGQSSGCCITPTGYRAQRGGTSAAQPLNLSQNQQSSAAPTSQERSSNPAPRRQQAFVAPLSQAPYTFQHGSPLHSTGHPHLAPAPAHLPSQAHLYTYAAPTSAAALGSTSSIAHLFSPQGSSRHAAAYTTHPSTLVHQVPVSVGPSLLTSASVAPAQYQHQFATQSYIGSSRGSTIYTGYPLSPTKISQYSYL
Sequence of Casein kinase I isoform delta (Homo sapiens) (P48730 whole entry, looked up, canonical isoform): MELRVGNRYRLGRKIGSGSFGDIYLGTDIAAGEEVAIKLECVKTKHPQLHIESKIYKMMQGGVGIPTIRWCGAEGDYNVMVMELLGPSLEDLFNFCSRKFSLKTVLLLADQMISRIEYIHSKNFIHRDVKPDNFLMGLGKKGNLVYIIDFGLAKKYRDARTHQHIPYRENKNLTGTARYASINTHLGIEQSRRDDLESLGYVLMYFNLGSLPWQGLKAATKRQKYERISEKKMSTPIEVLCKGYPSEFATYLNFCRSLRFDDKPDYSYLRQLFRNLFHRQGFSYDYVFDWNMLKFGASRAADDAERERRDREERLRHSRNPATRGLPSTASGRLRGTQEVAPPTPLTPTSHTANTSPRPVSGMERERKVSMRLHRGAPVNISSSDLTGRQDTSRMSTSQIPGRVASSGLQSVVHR

COc1ccc2sc(C(=O)NC(=O)c3ccccc3OC(F)(F)F)cc2c1
inhibition [1]: 64.4%
IC50 [2]: 0.049 µM
GI50 (T-24): 1.1 µM

COc1cc(F)c(C(=O)NC(=O)c2cc3cc(OC)ccc3s2)c(F)c1
inhibition [1]: 10.6%

COc1ccc2sc(C(=O)NC(=O)c3ccccc3)cc2c1
inhibition [1]: 56.1%

COc1ccc2sc(C(=O)NC(=O)c3ccc(C)cc3OC)cc2c1
inhibition [1]: 50.9%

COc1ccc2sc(C(=O)N(C)C(=O)c3ccccc3OC)cc2c1
inhibition [1]: 15.7%

COc1ccc2sc(C(=O)NC(=O)c3ccc(F)cc3OC)cc2c1
inhibition [1]: 74.5%
IC50 [2]: 0.004 µM
IC50 [3]: > 0.25 µM
inhibition [4]: 47.1%
Ratio IC50 (Homo sapiens [5]): > 62.5
GI50 (T-24): > 15 µM
inhibition [6]: 11%
inhibition (Homo sapiens [7]): 5%
inhibition [8]: 59%
inhibition [9]: 96%
inhibition [10]: 48%
inhibition [11]: 29%
inhibition [12]: 7%
inhibition [13]: 52%
inhibition [14]: 4%
inhibition [15]: 10%

COc1ccc2sc(C(=O)NC(=O)c3cc(C)ccc3OC)cc2c1
inhibition [1]: 42.7%

COc1ccc2sc(C(=O)NC(=O)c3ccccc3OC)cc2c1
inhibition [1]: 86.6%
IC50 [2]: 0.0346 µM

COc1ccc(C(=O)NC(=O)c2cc3cc(OC)ccc3s2)c(OC)c1
inhibition [1]: 42.2%
GI50 (T-24): > 15 µM

COc1ccc2sc(C(=O)NC(=O)c3cc(Cl)ccc3OC)cc2c1
inhibition [1]: 87.1%
IC50 [2]: 0.0097 µM
IC50 [3]: 0.486 µM
inhibition [4]: 19.9%
Ratio IC50 (Homo sapiens [5]): 50
GI50 (T-24): 1.1 µM
inhibition [16]: 3%
inhibition [6]: 7%
inhibition (Homo sapiens [7]): 4%
inhibition [8]: 57%
inhibition [9]: 45%
inhibition [10]: 45%
inhibition [17]: 14%
inhibition [11]: 24%
inhibition [12]: 1%
inhibition [13]: 31%
inhibition [14]: 8%
inhibition [15]: 3%
IC50 [18]: 0.0066 µM

CCCOc1ccccc1C(=O)NC(=O)c1cc2cc(OC)ccc2s1
inhibition [1]: 62.3%
IC50 [2]: 0.0898 µM

COc1ccc2sc(C(=O)NC(=O)c3ccno3)cc2c1
inhibition [1]: 12.1%

COc1ccc2sc(C(=O)NC(=O)c3cc(C)on3)cc2c1
inhibition [1]: 7.3%

COc1ccc2sc(C(=O)NC(=O)c3ccc(OC)c(OC)c3)cc2c1
inhibition [1]: 12.4%

COc1ccc2sc(C(=O)NC(=O)c3cccc(F)n3)cc2c1
inhibition [1]: 67.1%
IC50 [2]: 0.0209 µM
IC50 [3]: 0.25 µM
inhibition [4]: 53.8%
Ratio IC50 (Homo sapiens [5]): 12
GI50 (T-24): > 15 µM

COc1ccc2sc(C(=O)NC(=O)c3ccc(OC)c(F)c3)cc2c1
inhibition [1]: 5.9%

COc1ccc2sc(C(=O)NC(=O)c3cccc4c3OC(F)(F)O4)cc2c1
inhibition [1]: 43.1%

COc1ccc2sc(C(=O)NC(=O)c3ccccc3Cl)cc2c1
inhibition [1]: 61.4%
IC50 [2]: 0.092 µM

COc1ccc2sc(C(=O)NC(=O)c3ccc(Br)cc3OC)cc2c1
inhibition [1]: 61%
IC50 [2]: 0.075 µM
IC50 [3]: > 0.25 µM
inhibition [4]: 3.4%
Ratio IC50 (Homo sapiens [5]): > 3.3

COc1ccc(F)c(C(=O)NC(=O)c2cc3cc(OC)ccc3s2)c1
inhibition [1]: 7.8%

COc1ccc2sc(C(=O)NC(=O)c3cc(Cl)cnc3OC)cc2c1
inhibition [1]: 44.9%

COc1ccc2sc(C(=O)NC(=O)c3cc(F)ccc3F)cc2c1
inhibition [1]: 65.6%
IC50 [2]: 0.07 µM

COc1ccc2sc(C(=O)NC(=O)c3cccc(F)c3)cc2c1
inhibition [1]: 38.5%

COc1ccc2sc(C(=O)NC(=O)c3cccc(Cl)n3)cc2c1
inhibition [1]: 33%

COc1ccc2sc(C(=O)NC(=O)c3c(OC)cccc3OC)cc2c1
inhibition [1]: 12.2%

COc1ccc2sc(C(=O)NC(=O)c3cccc(OC)n3)cc2c1
inhibition [1]: 42.3%

COc1ccc2sc(C(=O)NC(=O)c3ccccc3F)cc2c1
inhibition [1]: 16.5%

COc1ccc2sc(C(=O)NC(=O)c3cc(C(F)(F)F)ccc3OC)cc2c1
inhibition [1]: 9.6%

COc1ccc2sc(C(=O)NC(=O)c3cc(C)cc(F)c3)cc2c1
inhibition [1]: 51.8%

COc1ccc2sc(C(=O)NC(=O)c3ccc(F)cc3)cc2c1
inhibition [1]: 35.7%

CC(C)(C)c1ccc(C(=O)Nc2cn3cc(-c4cn[nH]c4)ccc3n2)cn1
Ratio IC50 (Homo sapiens [19]): 2.2

COc1ccc2sc(C(=O)NC(=O)c3cccc(OC)c3OC)cc2c1
inhibition [1]: 27.7%

CCOc1ccccc1C(=O)NC(=O)c1cc2cc(OC)ccc2s1
inhibition [1]: 63.3%
IC50 [2]: 0.0794 µM
GI50 (T-24): < 0.1 µM

COc1ccc(OC)c(C(=O)NC(=O)c2cc3cc(OC)ccc3s2)c1
inhibition [1]: 30.8%

COc1ccc2sc(C(=O)NC(=O)c3ccccc3C)cc2c1
inhibition [1]: 6.5%

COc1ccc2sc(C(=O)NC(=O)c3cccc4c3OCCO4)cc2c1
inhibition [1]: 9.2%

COc1ccc2sc(C(=O)NC(=O)c3cc(F)cc(F)c3)cc2c1
inhibition [1]: 54.6%

COc1ccc2sc(C(=O)NC(=O)c3ccc(Cl)cc3OC)cc2c1
inhibition [1]: 49.5%

COc1ccc2sc(C(=O)NC(=O)c3cc(F)ccc3OC)cc2c1
inhibition [1]: 83.3%
IC50 [2]: 0.0184 µM
IC50 [3]: 0.25 µM
inhibition [4]: 52.6%
Ratio IC50 (Homo sapiens [5]): 13.6

COc1ccc2sc(C(=O)NC(=O)c3cccc(Cl)c3OC)cc2c1
inhibition [1]: 2.2%

COc1ccc2sc(C(=O)N(C)Cc3cc(F)cc(F)c3)cc2c1
Ratio IC50 (Homo sapiens [20]): 9.8
Ratio IC50 (Homo sapiens [21]): 28

COc1cccc(C(=O)NC(=O)c2cc3cc(OC)ccc3s2)c1
inhibition [1]: 36.5%
